According to US20090214529A9, “KINESIN INHIBITORS” (TaiGen Biotechnology Co., Ltd., priority 2007, published 2009):

How the values were obtained:
[1] = tested on: human colon cancer cell line (Colo205) xenograft; experiment: In vivo tumor growth inhibition assay, nude mice s.c. implanted tumor model
Description: The human colon cancer cell line (Colo205) obtained from the American Type Culture Collection (Rockville, Md.) was used for the xenograft model. The cell line was maintained in growth medium supplemented with L-glutamine, ribonucleosides, deoxyribonucleosides, 10% FCS, and the following antimicrobial agents: 100 IU/ml penicillin, […] streptomycin, and […] amphotericin B. Cultures were established in 75-cm^2 flasks (Costar, Cambridge, Mass.), maintained at 37° C. in a humidified atmosphere with 5% CO2 in air, and subcultured every 4˜7 days with 0.25% trypsin in HBSS (Invitrogen Life Technologies, Carlsbad, Calif.). For in vivo tumor growth, cells (1×10^7) suspended in 100 μl of PBS were inoculated in the flanks of 5-week-old female athymic BALB/cAnNCij-nu/nu mice (Charles River, Kanagawa, Japan). Seven days after inoculation (day 7), mice with tumors measuring 6-7 mm in diameter were randomly separated into 3 groups with five mice in each group. Compound 36 was dissolved in a vehicle (10% 40 mM sodium citrate, 5% Tween-80, 5% ethanol in saline) and intraperitoneally administered respectively to the groups of mice at the selected dose levels with the selected dosing regimen. A vehicle was administered to the third group of mice. Tumor size was measured twice weekly until day 30. Tumor volume (TV) was calculated as follows: volume=[length (mm)×width (mm)^2]×0.52. The tumor growth for each group was expressed by the median values of the ratio between the tumor volume measured at a specific day to the initial tumor volume measured at the day of first dosing.

tumor cell = experiment: Cytotoxicity assay (MTS); format: cell-based; settings: 72 h; incubation for three days; read-out: IC50, tumor cell growth inhibition (MTS)
In short: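 Tumour cells seeded overnight, then exposed to varying compound concentrations for three days. Viability read by MTS/PMS conversion to formazan (2 h, 37 °C, absorbance 490 nm). Results given as blank-corrected T/C (%) against vehicle controls.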

Human Colo205 cells = experiment: Cell cycle arrest assay (flowcytometry, propidium iodide); format: cell-based; settings: DNA content by flowcytometry
Description: The efficacy of a test compound to arrest cells as a KSP inhibitor was determined by flowcytometry analysis. Human Colo205 cells were grown in 6-well plates and treated the next day with the test compound for various time lengths. They were then scraped from plates using a rubber policeman, washed with PBS, and centrifuged at 1,000 rpm for 5 minutes. 1 ML of a buffer containing 10 μM of propidium iodide and 50 ug/ml of RNase A was used to re-suspend the cells. The cells were subsequently incubated in this buffer for 10 minutes at room temperature in the dark, passed through a filter to remove cell clumps, and observed under a Coulter Epics XL-MCL Training Modules flowcytometer.

Compound | IC50 (tumor cell) | shift in cell cycle population (Human Colo205 cells) | further results
Cc1ccc(C(=O)N(CCN)C(c2nc3c(oc4ccc(Cl)cc43)c(=O)n2Cc2ccccc2)C(C)C)cc1 (centres unmarked) [Compound 36] | < 30 µM |  | tumor growth inhibition (in words) ([1]; 40 mg/Kg and 30 mg/Kg, intraperitoneal, q2dx5, Colo205 xenograft): significant tumor growth inhibition; tumor growth inhibition at day 10 ([1]; 40 mg/Kg and 30 mg/Kg, intraperitoneal, q2dx5, day 10): more than 83%; tumor growth inhibition at day 13 ([1]; 40 mg/Kg and 30 mg/Kg, intraperitoneal, q2dx5, day 13): more than 90%; tumor growth inhibition at day 16 ([1]; 40 mg/Kg and 30 mg/Kg, intraperitoneal, q2dx5, day 16): more than 92%; tumor inhibition, higher dose versus lower dose ([1]; 40 mg/Kg compared with 30 mg/Kg, q2dx5): stronger tumor inhibition
Cc1ccc(C(=O)N(CCN)C(c2nc3c(oc4ccc(F)cc43)c(=O)n2Cc2ccc(Br)o2)C(C)C)cc1 (centres unmarked) [Compound 81] | < 30 µM | shift in the population of cells from a G0/G1 stage (2N DNA content) to a G2/M stage (4N DNA content) | 
Cc1ccc(C(=O)N(CCN)[C@@H](c2nc3c(oc4ccc(F)cc43)c(=O)n2Cc2ccc(Br)o2)C(C)C)cc1 [Compound 177] | < 30 µM | shift in the population of cells from a G0/G1 stage (2N DNA content) to a G2/M stage (4N DNA content) | 
Cc1ccc(C(=O)N(CCN)C(c2nc3c(oc4ccc(F)cc43)c(=O)n2Cc2ccc(C#N)s2)C(C)C)cc1 (centres unmarked) [Compound 83] | < 30 µM | shift in the population of cells from a G0/G1 stage (2N DNA content) to a G2/M stage (4N DNA content) | 
Cc1ccc(C(=O)N(CCN)C(c2nc3c(oc4ccc(F)cc43)c(=O)n2Cc2ccc(C(F)(F)F)o2)C(C)C)cc1 (centres unmarked) [Compound 86] | < 30 µM | shift in the population of cells from a G0/G1 stage (2N DNA content) to a G2/M stage (4N DNA content) | 
Cc1ccc(C(=O)N(CCN)C(c2nc3c(oc4ccc(F)cc43)c(=O)n2Cc2ccccc2)C(C)C)cc1 (centres unmarked) [Compound 62] |  | shift in the population of cells from a G0/G1 stage (2N DNA content) to a G2/M stage (4N DNA content) | 
Cc1ccc(C(=O)N(CCN)C(c2nc3c(oc4ccc(F)cc43)c(=O)n2Cc2ccc(Br)s2)C(C)C)cc1 (centres unmarked) [Compound 66] | < 30 µM | shift in the population of cells from a G0/G1 stage (2N DNA content) to a G2/M stage (4N DNA content) | 
Cc1ccc(C(=O)N(CCN)C(c2nc3c(oc4ccc(F)cc43)c(=O)n2Cc2cc(C)cs2)C(C)C)cc1 (centres unmarked) [Compound 84] | < 30 µM | shift in the population of cells from a G0/G1 stage (2N DNA content) to a G2/M stage (4N DNA content) | tumor growth inhibition at day 20 ([1]; 60 mg/Kg, q3dx3, day 20): more than 90%
Cc1csc(Cn2c(C(C(C)C)N(CCN)C(=O)c3ccc(C)c(F)c3)nc3c(oc4ccc(F)cc43)c2=O)c1 (centres unmarked) [Compound 168] | < 30 µM | shift in the population of cells from a G0/G1 stage (2N DNA content) to a G2/M stage (4N DNA content) | 
Cc1ccc(C(=O)N(CCCN)C(c2nc3cc4ccccc4cc3c(=O)n2Cc2ccccc2)C(C)C)cc1 (centres unmarked) [Compound 3] | < 30 µM |  | 
CCC(c1nc2nc3ccccc3cc2c(=O)n1Cc1ccccc1)N(CCCN)C(=O)c1ccc(C)cc1 (centres unmarked) [Compound 11] | < 30 µM |  | 
Cc1ccc(C(=O)N(CCN)C(c2nc3c(oc4ccc(F)cc43)c(=O)n2Cc2cccc(Br)c2)C(C)C)cc1 (centres unmarked) [Compound 124] | < 30 µM |  | 
Cc1ccc(C(=O)N(CCN)C(c2nc3c(oc4ccc(Cl)cc43)c(=O)n2Cc2ccc(Cl)o2)C(C)C)cc1 (centres unmarked) [Compound 100] | < 30 µM |  | 
